Measurements: patent publication US20250296959A1, “B7-H3 TARGETING PEPTIDES AND CONSTRUCTS THEREOF” (Mariana Oncology Inc., priority 2024, published 2025)
Positions of bridges follow the written chain, without caps; N, C: chain ends. Non-standard residues stand in square brackets, D forms with d. Residues, ends and D or L forms follow the SMILES beside them. *: point of attachment. DOTA = O=C(O)CN1CCN(CC(=O)O)CCN(CC(=O)*)CCN(CC(=O)O)CC1; Trp(5-F) = N[C@@H](Cc1c[nH]c2ccc(F)cc12)C(=O)O; 4Pal = N[C@@H](Cc1ccncc1)C(=O)O; Chg = N[C@H](C(=O)O)C1CCCCC1; Tle = CC(C)(C)[C@H](N)C(=O)O; hLeu = CC(C)CC[C@H](N)C(=O)O; Nle = CCCC[C@H](N)C(=O)O; Orn = NCCC[C@H](N)C(=O)O; Sar = CNCC(=O)O

Target: T1, human 4lg B7-H3 (Homo sapiens, UniProt Q5ZPR3)
T1 sequence (Q5ZPR3 29-534): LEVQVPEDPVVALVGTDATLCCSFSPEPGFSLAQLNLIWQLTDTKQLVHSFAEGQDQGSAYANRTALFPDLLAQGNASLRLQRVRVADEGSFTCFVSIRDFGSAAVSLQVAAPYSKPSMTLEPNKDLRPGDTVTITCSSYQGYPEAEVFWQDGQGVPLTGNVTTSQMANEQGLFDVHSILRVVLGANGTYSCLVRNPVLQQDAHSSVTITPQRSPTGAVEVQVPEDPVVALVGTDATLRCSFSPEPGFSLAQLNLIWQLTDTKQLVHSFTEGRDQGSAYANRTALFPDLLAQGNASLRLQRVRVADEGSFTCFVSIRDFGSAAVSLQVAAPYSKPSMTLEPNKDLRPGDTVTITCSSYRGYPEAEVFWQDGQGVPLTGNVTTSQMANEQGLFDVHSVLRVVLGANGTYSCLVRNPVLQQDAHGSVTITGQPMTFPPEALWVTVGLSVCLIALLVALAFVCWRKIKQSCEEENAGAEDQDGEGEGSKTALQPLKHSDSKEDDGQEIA
Experiment: Affinity determination by surface plasmon resonance (SPR) to 4Ig B7-H3
Settings: SPR KD—25° C., 4Ig B7-H3; 25° C. flow cell temperature

**Q.** For `CCCC[C@H](NC(C)=O)C(=O)N[C@@H](Cc1ccc(O)cc1)C(=O)N[C@H]1CSSC[C@@H](C(=O)N[C@@H](Cc2c[nH]c3ccccc23)C(=O)N[C@@H](Cc2ccccc2)C(=O)N[C@H](C(=O)N[C@H](CCCCNC(=O)CN2CCN(CC(=O)O)CCN(CC(=O)O)CCN(CC(=O)O)CC2)C(N)=O)[C@@H](C)O)NC(=O)[C@H](Cc2ccc(O)cc2)NC(=O)[C@H](C2CCCCC2)NC(=O)[C@H](CC(=O)O)NC(=O)[C@H](Cc2ccc(O)cc2)NC(=O)[C@H](CCCCN)NC(=O)CNC(=O)[C@H](C(C)C)NC1=O` [compound 55, Ac-Nle-Y-C-V-G-K-Y-D-ChG-Y-C-W-F-Thr-dLys(DOTA)-CONH2] (Ac-[Nle]YCVGKYD[Chg]YCWFT[dK](DOTA)-NH2; disulfide 3-11), which Kd is on record?
**A.** 1 to 10 nM

**Q.** How did the Kd turn out when `CC(=O)N[C@@H](CC(C)C)C(=O)N[C@@H](Cc1ccc(O)cc1)C(=O)N[C@H]1CSSC[C@@H](C(=O)N[C@@H](Cc2c[nH]c3ccccc23)C(=O)N[C@@H](Cc2ccccc2)C(=O)N[C@H](C(=O)N[C@H](CCCCNC(=O)CN2CCN(CC(=O)O)CCN(CC(=O)O)CCN(CC(=O)O)CC2)C(N)=O)[C@@H](C)O)NC(=O)[C@H](Cc2ccc(O)cc2)NC(=O)[C@H](C(C)C)NC(=O)[C@H](CC(=O)O)NC(=O)[C@H](Cc2ccc(O)cc2)NC(=O)[C@H](CCCCN)NC(=O)CNC(=O)[C@H](C(C)C)NC1=O` [compound 56, Ac-Leu-Y-C-V-G-K-Y-D-V-Y-C-W-F-Thr-dLys(DOTA)-CONH2] (Ac-LYCVGKYDVYCWFT[dK](DOTA)-NH2; disulfide 3-11) was run?
**A.** 10 to 100 nM

**Q.** For `CCCC[C@H](NC(C)=O)C(=O)N[C@@H](Cc1ccc(O)cc1)C(=O)N[C@H]1CSSC[C@@H](C(=O)N[C@@H](Cc2c[nH]c3ccccc23)C(=O)N[C@@H](Cc2ccccc2)C(=O)N[C@H](C(=O)N[C@H](CCCCNC(=O)CN2CCN(CC(=O)O)CCN(CC(=O)O)CCN(CC(=O)O)CC2)C(N)=O)[C@@H](C)O)NC(=O)[C@H](Cc2ccc(O)cc2)NC(=O)[C@H](C(C)C)NC(=O)[C@H](CC(=O)O)NC(=O)[C@H](Cc2ccncc2)NC(=O)[C@H](CCCCN)NC(=O)CNC(=O)[C@H](C(C)C)NC1=O` [compound 58, Ac-Nie-Y-C-V-G-K-4PyA-D-V-Y-C-W-F-Thr-dLys(DOTA)-CONH2] (Ac-[Nle]YCVGK[4Pal]DVYCWFT[dK](DOTA)-NH2; disulfide 3-11), which Kd is on record?
**A.** 1 to 10 nM

**Q.** With `CCCC[C@H](NC(C)=O)C(=O)N[C@@H](Cc1ccc(O)cc1)C(=O)N[C@H]1CSSC[C@@H](C(=O)N[C@@H](Cc2c[nH]c3ccc(F)cc23)C(=O)N[C@@H](Cc2ccccc2)C(=O)N[C@H](C(N)=O)[C@@H](C)O)NC(=O)[C@H](Cc2ccc(O)cc2)NC(=O)[C@H](C(C)C)NC(=O)[C@H](CC(=O)O)NC(=O)[C@H](Cc2ccc(O)cc2)NC(=O)[C@H](CCCCN)NC(=O)CNC(=O)[C@H](C(C)C)NC1=O` [compound 59, Ac-Nle-Y-C-V-G-K-Y-D-V-Y-C-5FW-F-Thr-CONH2] (Ac-[Nle]YCVGKYDVYC[Trp(5-F)]FT-NH2; disulfide 3-11) as the compound, how does the Kd read?
**A.** 1 to 10 nM

**Q.** How did the Kd turn out when `CCCC[C@H](NC(C)=O)C(=O)N[C@@H](Cc1ccc(O)cc1)C(=O)N[C@H]1CSSC[C@@H](C(=O)N[C@@H](Cc2c[nH]c3ccccc23)C(=O)N[C@@H](Cc2ccccc2)C(=O)N[C@H](C(=O)N[C@H](CCCCNC(=O)CN2CCN(CC(=O)O)CCN(CC(=O)O)CCN(CC(=O)O)CC2)C(N)=O)[C@@H](C)O)NC(=O)[C@H](Cc2ccc(O)cc2)NC(=O)[C@H](C(C)C)NC(=O)[C@H](CC(=O)O)NC(=O)[C@H](Cc2ccc(O)cc2)NC(=O)[C@H](CCCCN)NC(=O)CNC(=O)[C@H](C(C)(C)C)NC1=O` [compound 61, Ac-Nle-Y-C-Tbg-G-K-Y-D-V-Y-C-W-F-Thr-dLys(DOTA)-CONH2] (Ac-[Nle]YC[Tle]GKYDVYCWFT[dK](DOTA)-NH2; disulfide 3-11) was run?
**A.** 1 to 10 nM

**Q.** Which Kd does the source give for `CCCC[C@H](NC(C)=O)C(=O)N[C@@H](Cc1ccc(O)cc1)C(=O)N[C@H]1CSSC[C@@H](C(=O)N[C@@H](Cc2c[nH]c3ccccc23)C(=O)N[C@@H](Cc2ccccc2)C(=O)N[C@H](C(=O)N[C@H](CCCCNC(=O)CN2CCN(CC(=O)O)CCN(CC(=O)O)CCN(CC(=O)O)CC2)C(N)=O)[C@@H](C)O)NC(=O)[C@H](Cc2ccc(O)cc2)NC(=O)[C@H](C(C)(C)C)NC(=O)[C@H](CC(=O)O)NC(=O)[C@H](Cc2ccc(O)cc2)NC(=O)[C@H](CCCCN)NC(=O)CNC(=O)[C@H](C(C)C)NC1=O` [compound 62, Ac-Nle-Y-C-V-G-K-Y-D-Tbg-Y-C-W-F-Thr-dLys(DOTA)-CONH2] (Ac-[Nle]YCVGKYD[Tle]YCWFT[dK](DOTA)-NH2; disulfide 3-11) here?
**A.** 100 to 300 nM

**Q.** With `CCCC[C@H](NC(C)=O)C(=O)N[C@@H](Cc1ccc(O)cc1)C(=O)N[C@H]1CSSC[C@@H](C(=O)N[C@@H](Cc2c[nH]c3ccccc23)C(=O)N[C@@H](Cc2ccccc2)C(=O)N[C@H](C(=O)N[C@H](CCCCNC(=O)CN2CCN(CC(=O)O)CCN(CC(=O)O)CCN(CC(=O)O)CC2)C(N)=O)[C@@H](C)O)NC(=O)[C@H](Cc2ccc(O)cc2)NC(=O)[C@H](C(C)C)NC(=O)[C@H](CC(=O)O)NC(=O)[C@H](Cc2ccc(O)cc2)NC(=O)[C@H](CCCN)NC(=O)CNC(=O)[C@H](C(C)C)NC1=O` [compound 63, Ac-Nle-Y-C-V-G-Orn-Y-D-V-Y-C-W-F-Thr-dLys(DOTA)-CONH2] (Ac-[Nle]YCVG[Orn]YDVYCWFT[dK](DOTA)-NH2; disulfide 3-11) as the compound, how does the Kd read?
**A.** 1 to 10 nM

**Q.** `CCCC[C@H](NC(C)=O)C(=O)N[C@@H](Cc1ccc(O)cc1)C(=O)N[C@H]1CSSC[C@@H](C(=O)N[C@@H](Cc2c[nH]c3ccccc23)C(=O)N[C@@H](Cc2ccccc2)C(=O)N[C@H](C(=O)N[C@H](CCCCNC(=O)CN2CCN(CC(=O)O)CCN(CC(=O)O)CCN(CC(=O)O)CC2)C(N)=O)[C@@H](C)O)NC(=O)[C@H](Cc2ccc(O)cc2)NC(=O)[C@H](C(C)C)NC(=O)[C@H](CC(=O)O)NC(=O)[C@H](Cc2ccc(O)cc2)NC(=O)[C@H](CCCCNC(C)=O)NC(=O)CNC(=O)[C@H](C(C)C)NC1=O` [compound 65, Ac-Nle-Y-C-V-G-Lys(Ac)-Y-D-V-Y-C-W-F-Thr-dLys(DOTA)-CONH2] (Ac-[Nle]YCVGK(Ac)YDVYCWFT[dK](DOTA)-NH2; disulfide 3-11) was tested. Which Kd did it give?
**A.** 10 to 100 nM

**Q.** With `CCCC[C@H](NC(C)=O)C(=O)N[C@@H](Cc1ccc(O)cc1)C(=O)N[C@H]1CSSC[C@@H](C(=O)N[C@@H](Cc2c[nH]c3ccccc23)C(=O)N[C@@H](Cc2ccccc2)C(=O)N[C@H](C(=O)N[C@H](CCCCNC(=O)CN2CCN(CC(=O)O)CCN(CC(=O)O)CCN(CC(=O)O)CC2)C(N)=O)[C@@H](C)O)NC(=O)[C@H](Cc2ccc(O)cc2)NC(=O)[C@H](C(C)C)NC(=O)[C@H](CC(=O)O)NC(=O)[C@H](Cc2ccc(O)cc2)NC(=O)[C@H](CCCC)NC(=O)CNC(=O)[C@H](C(C)C)NC1=O` [compound 66, Ac-Nle-Y-C-V-G-Nle-Y-D-V-Y-C-W-F-Thr-dLys(DOTA)-CONH2] (Ac-[Nle]YCVG[Nle]YDVYCWFT[dK](DOTA)-NH2; disulfide 3-11) as the compound, how does the Kd read?
**A.** 10 to 100 nM

**Q.** With `CC(=O)N[C@@H](CCC(C)C)C(=O)N[C@@H](Cc1ccc(O)cc1)C(=O)N[C@H]1CSSC[C@@H](C(=O)N[C@@H](Cc2c[nH]c3ccccc23)C(=O)N[C@@H](Cc2ccccc2)C(=O)N[C@H](C(=O)N[C@H](CCCCNC(=O)CN2CCN(CC(=O)O)CCN(CC(=O)O)CCN(CC(=O)O)CC2)C(N)=O)[C@@H](C)O)NC(=O)[C@H](Cc2ccc(O)cc2)NC(=O)[C@H](C(C)C)NC(=O)[C@H](CC(=O)O)NC(=O)[C@H](Cc2ccc(O)cc2)NC(=O)[C@H](CCCCN)NC(=O)CN(C)C(=O)[C@H](C(C)(C)C)NC1=O` [compound 75, Ac-hLeu-Y-C-Tbg-Sar-K-Y-D-V-Y-C-W-F-Thr-dLys(DOTA)-CONH2] (Ac-[hLeu]YC[Tle][Sar]KYDVYCWFT[dK](DOTA)-NH2; disulfide 3-11) as the compound, how does the Kd read?
**A.** 1 to 10 nM

**Q.** How did the Kd turn out when `CC(=O)N[C@@H](CCC(C)C)C(=O)N[C@@H](Cc1ccc(O)cc1)C(=O)N[C@H]1CSSC[C@@H](C(=O)N[C@@H](Cc2c[nH]c3ccc(F)cc23)C(=O)N[C@@H](Cc2ccccc2)C(=O)N[C@H](C(=O)N[C@H](CCCCNC(=O)CN2CCN(CC(=O)O)CCN(CC(=O)O)CCN(CC(=O)O)CC2)C(N)=O)[C@@H](C)O)NC(=O)[C@H](Cc2ccc(O)cc2)NC(=O)[C@H](C(C)C)NC(=O)[C@H](CC(=O)O)NC(=O)[C@H](Cc2ccc(O)cc2)NC(=O)[C@H](CCCCN)NC(=O)CN(C)C(=O)[C@H](C(C)(C)C)NC1=O` [compound 78, Ac-hLeu-Y-C-Tbg-Sar-K-Y-D-V-Y-C-5FW-F-Thr-dLys(DOTA)-CONH2] (Ac-[hLeu]YC[Tle][Sar]KYDVYC[Trp(5-F)]FT[dK](DOTA)-NH2; disulfide 3-11) was run?
**A.** 1 to 10 nM

**Q.** How did the Kd turn out when `CCCC[C@H](NC(C)=O)C(=O)N[C@@H](Cc1ccc(O)cc1)C(=O)N[C@H]1CSSC[C@@H](C(=O)N[C@@H](Cc2c[nH]c3ccccc23)C(=O)N[C@@H](Cc2ccccc2)C(=O)N[C@H](C(=O)N[C@H](CCCCNC(=O)CN2CCN(CC(=O)O)CCN(CC(=O)O)CCN(CC(=O)O)CC2)C(N)=O)[C@@H](C)O)NC(=O)[C@H](Cc2ccc(O)cc2)NC(=O)[C@H](C(C)C)NC(=O)[C@H](CC(=O)O)NC(=O)[C@H](Cc2ccc(O)cc2)NC(=O)[C@H](Cc2ccncc2)NC(=O)CNC(=O)[C@H](C(C)C)NC1=O` [compound 79, Ac-Nle-Y-C-V-G-4PyA-Y-D-V-Y-C-W-F-Thr-dLys(DOTA)-CONH2] (Ac-[Nle]YCVG[4Pal]YDVYCWFT[dK](DOTA)-NH2; disulfide 3-11) was run?
**A.** 10 to 100 nM
